Key:
[1] = system: non-malignant Caco-2 cells; assay: MTS cell viability assay, Caco-2; assay type: cell-based, human
Experimental: FIG. 13. Inhibition of cell viability by BKAc-Puro is presented in dose-response curve format for the same cell lines as in FIG. 8. The cell lines were treated with DMSO or the indicated doses of agent (4.22, 8.44, 16.9, 33.8, 67.5, or 135 μM) for 5 d followed by MTS assay. Data represent mean values of triplicate measurements±s.d. (n=3). IC50 values were fit by logistic regression.
FIG. 14. Inhibition of cell viability by parental Puro. The cell lines were treated with the indicated doses of Puro (0, 1.1, 2.1, 4.2, or 8.4 μM) for 3 d followed by MTS assay. Data represent mean values of triplicate measurements±s.d.
(§1) Cell number was determined by cell counting using improved Neubauer hemacytometer. Cell viability was calculated as the number of viable cells divided by the total number of cells using Trypan Blue Stain (Invitrogen) to distinguish non-viable cells. Data were obtained from duplicated samples with quadruplicate measurements. MTS based cell viability assay was performed using CellTiter 96 Aqueous Cell Proliferation Assay (Promega) according to the manufacturer's instruction. Either 1 μl of DMSO alone or variable concentrations of BKAc-Puro or Puro in DMSO were added to the cell lines seeded at 5×10^4 cells per well in 96-well tissue culture plates in 100 μl of the growth medium, followed by 3-5 d incubation at 37° C. with 5% CO2 atmosphere. Then 20 μl of the MTS reagent was added to each well. After additional 2-3 h incubation, the absorbance of the formazan at 490 nm was measured by the microplate reader. Percent cell viability was expressed relative to the wells containing cells treated with DMSO alone. Data were obtained from triplicate measurements. […] Determination of non-viable cells using PI staining was performed by adding 1 μg/ml of PI solution (Sigma) to the cell culture, prior to the examination under fluorescence microscopy (Axiovert 3, Carl Zeiss) through a×32 objective equipped with a digital imaging processor (Infinity 3, Lumenera).

[2] = system: prostate cancer cells (PC-3, DU-145 and LNCaP); assay: Cell viability assay, prostate cancer cells; assay type: cell-based; details: dose-response, MTS
Experimental: FIG. 19. Selective cytotoxicity by BKAc-Puro on prostate cancer cells. Prostate cancer (PC-3, DU-145, and LNCaP), colon cancer (HCT116 as a positive control sensitive to the drug), and normal colon (CCD841-CoN as a negative control) cells were grown and analyzed as in FIG. 13. BKAc-Puro can effectively cause cell death on prostate cancer cells.
as §1, with “Either 1 μl of DMSO alone or variable concentrations of BKAc-Puro or Puro in DMSO were added to the cell lines seeded at 5×10^4 cells per well in 96-well tissue culture plates in 100 μl of the growth medium, followed by 3-5 d incubation at 37° C. with 5% CO2 atmosphere. Then 20 μl of the MTS reagent was added to each well.” left out, “reader.” for “reader. Percent cell viability was expressed relative to the wells containing cells treated with DMSO alone. Data were obtained from triplicate measurements.”

[3] = system: pancreatic cancer cells (BXPC-3 and MiaPaca-2); assay: Cell viability assay, pancreatic cancer cells; assay type: cell-based, human; details: MTS
Experimental: FIG. 16. Anticancer effect of BKAc-Puro on pancreatic cell lines. The cell lines were treated with DMSO (vehicle), BKAc-Puro (54 μM), or Puro (4.2 μM) for 5 d followed by MTS assay. Normal Eph4 (non-pancreatic) cells are shown as control. Data represent mean values of triplicate measurements±s.d.
FIG. 18. Selective cytotoxicity by BKAc-Puro on pancreatic cancer cells. Pancreatic cancer (BXPC-3 and Miapaca-2), colon cancer (HCT116 as a positive control sensitive to the drug), and normal colon (CCD841-CoN as a negative control) cells were grown and analyzed as in FIG. 13. […]
Cell number was determined by cell counting using improved Neubauer hemacytometer. Cell viability was calculated as the number of viable cells divided by the total number of cells using Trypan Blue Stain (Invitrogen) to distinguish non-viable cells. […] After additional 2-3 h incubation, the absorbance of the formazan at 490 nm was measured by the microplate reader. […] Determination of non-viable cells using PI staining was performed by adding 1 μg/ml of PI solution (Sigma) to the cell culture, prior to the examination under fluorescence microscopy (Axiovert 3, Carl Zeiss) through a×32 objective equipped with a digital imaging processor (Infinity 3, Lumenera).

[4] = Toxicity / body weight change in mice; assay type: in vivo, mouse
Description: FIG. 20. In vivo anticancer efficacy of BKAc-Puro. […] HCT116 cells were implanted subcutaneously into female nude mice. When the developed tumors reached 200 mm^3, animals were intraperitoneally injected by the indicated dose of the compound or vehicle control (DMSO). Tumor volume was estimated by the equation vol=(a×b^2)/2, where vol, a, and b represent volume, the length of the major axis, and the length of the minor axis, respectively. Arrows indicate the time points of treatment. (b) Body weight change during the treatment in a. Value is expressed in percent change compared to the day of the first treatment.
FIG. 21. HCT116 cells were implanted subcutaneously into female nude mice. When palpable tumors reached 50-150 mm^3, animals were randomized and treated by the indicated dose of the compound or vehicle control (DMSO) via intraperitoneal injection. Tumor incidence is presented as number of mice developed tumor (volume >300 mm^3) after 2 weeks of daily treatment/number of mice treated. Tumor volume was estimated by the equation vol=(a×b^2)/2, where vol, a, and b represent volume, the length of the major axis, and the length of the minor axis, respectively.
FIG. 22. Dose escalation toxicity study. Female nude mice (8-10 weeks old) were treated with the indicated dose of BKAc-Puro (7, 20, 67, 200, and 400 mg/kg; n=3 in each treatment group). Body weight change during the treatment is expressed in percent change compared to the day of the first treatment. Arrows indicate the time points of treatment. Data represent mean values±s.d. (n=3).
FIG. 29. In vivo anticancer efficacy of Boc-KAc-Puro. (a) Tumor growth in HCT116 xenograft model. Animals were treated with acidified saline control or Boc-KAc-Puro (50 or 150 mg/kg). Values are mean±s.d. (n=5 mice per group). *** P<0.001 compared to the control group. P=0.000716 (50 mg/kg), P=0.000349 (150 mg/kg) at 10 d. (b) Body weight change during the treatment in a and was monitored as a sign of general animal health. Values are mean±s.d. (c) Tumor growth in HT29 xenograft model. Animals were treated with acidified saline control or Boc-KAc-Puro (150 mg/kg). Values are mean±s.d. (n=5 mice per group). *** P<0.001 compared to the control group. P=0.000514 (150 mg/kg) at 10 d. (d) Body weight change during the treatment in c was monitored as a sign of general animal health. Values are mean±s.d. (e) Levels of Puro-incorporated proteins were monitored by immunoblotting. Animals bearing HT29 xenograft tumor were given daily intraperitoneal administration of the prodrug at 150 mg/kg/dose for 3 d, followed by preparation of tissue lysates. The lower panel (anti-α-Tubulin) served as a loading control.

With `COc1ccc(CC(NC(=O)C(CCCCNC(C)=O)NC(=O)OC(C)(C)C)C(=O)NC2C(O)[C@H](n3cnc4c(N(C)C)ncnc43)O[C@@H]2CO)cc1` (stereo partly drawn) [BKAc-Puro, N-[3′-(α-Amino-p-methoxyhydrocinnamamido)-3′-deoxy-N,N-dimethyldenosinyl)-N-α-(t-butoxycarbonyl]-N-ε-acetyl-L-lysineamide] the “Highest inactive dose relative to dose of parental Puro effective to Caco-2 cells” value ([1]; 135 μM BKAc-Puro vs parental Puro) was “more than 30 times”, the IC50 ([1]; Homo sapiens, Caco-2, 120 h, MTS, 5 d, sufficient inhibition not achieved with doses up to 135 μM) was over 135 µM and the Cell death [2] was “effectively caused cell death”. The “Effect on cell viability” value ([3]; 54 μM, 5 d) was “also effective”, the Cell death ([3]; dose-response) was “effectively caused cell death” and the “Tolerability judged by weight loss” value ([4]; 150 mg/kg/dose daily intraperitoneal for 10 d) was “well-tolerated”. The Toxicity ([4]; 400 mg/kg, during and after 14 injections, HCT116 xenograft mice) was “No toxicity was observed”, the Toxicity ([4]; tumor incidence study groups, daily intraperitoneal treatment) was “no toxicity was observed” and the “Systemic toxicity, dose escalation” value ([4]; up to 400 mg/kg, 5 consecutive daily injections, female nude mice) was “No severe systemic toxicity was observed”.

— patent publication US20160184459A1, “CANCER CELL SPECIFIC IMAGING PROBES AND METHODS OF USE” (THE RESEARCH FOUNDATION FOR THE STATE UNIVERSITY OF NEW YORK, priority 2013, published 2016)
